Measured values: ChEMBL document CHEMBL5518190, “Advancements in dual-target inhibitors of PI3K for tumor therapy: Clinical progress, development strategies, prospects” (Eur J Med Chem, 2024)
In brackets after ≈: the same amount, converted by molar mass. Values belong to the compound of their own block, whether it stands above or below them.

What was measured:
[1] = test system: A-375; experiment: Antiproliferative activity against human A-375 cells assessed as reduction in cell viability measured after 48 hrs by MTT assay; type: functional, cell-based; conditions: A-375, 48 h
[2] = target: Histone deacetylase 1 (Homo sapiens, UniProt Q13547); experiment: Inhibition of HDAC1 (unknown origin) by fluorescence based assay
Histone deacetylase 1, sequence (Q13547 whole entry, canonical isoform): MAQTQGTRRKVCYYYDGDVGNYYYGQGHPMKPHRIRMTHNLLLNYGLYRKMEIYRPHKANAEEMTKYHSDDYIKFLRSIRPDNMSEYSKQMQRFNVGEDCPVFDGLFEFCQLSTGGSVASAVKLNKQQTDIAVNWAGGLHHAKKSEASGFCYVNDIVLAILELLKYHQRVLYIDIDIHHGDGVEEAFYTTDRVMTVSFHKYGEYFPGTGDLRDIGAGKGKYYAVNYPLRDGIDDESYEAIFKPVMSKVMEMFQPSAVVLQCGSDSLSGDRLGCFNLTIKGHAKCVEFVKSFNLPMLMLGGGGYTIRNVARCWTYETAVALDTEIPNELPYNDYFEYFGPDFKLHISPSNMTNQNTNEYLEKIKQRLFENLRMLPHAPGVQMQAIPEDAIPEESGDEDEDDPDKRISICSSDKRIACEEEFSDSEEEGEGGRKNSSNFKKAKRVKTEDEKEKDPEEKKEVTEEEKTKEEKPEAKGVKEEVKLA

[3] = target: T1, Phosphatidylinositol 4,5-bisphosphate 3-kinase catalytic subunit alpha isoform (Homo sapiens, UniProt P42336); experiment: Inhibition of full length wild type PI3Kalpha (unknown origin)
T1 sequence (P42336 whole entry, canonical isoform): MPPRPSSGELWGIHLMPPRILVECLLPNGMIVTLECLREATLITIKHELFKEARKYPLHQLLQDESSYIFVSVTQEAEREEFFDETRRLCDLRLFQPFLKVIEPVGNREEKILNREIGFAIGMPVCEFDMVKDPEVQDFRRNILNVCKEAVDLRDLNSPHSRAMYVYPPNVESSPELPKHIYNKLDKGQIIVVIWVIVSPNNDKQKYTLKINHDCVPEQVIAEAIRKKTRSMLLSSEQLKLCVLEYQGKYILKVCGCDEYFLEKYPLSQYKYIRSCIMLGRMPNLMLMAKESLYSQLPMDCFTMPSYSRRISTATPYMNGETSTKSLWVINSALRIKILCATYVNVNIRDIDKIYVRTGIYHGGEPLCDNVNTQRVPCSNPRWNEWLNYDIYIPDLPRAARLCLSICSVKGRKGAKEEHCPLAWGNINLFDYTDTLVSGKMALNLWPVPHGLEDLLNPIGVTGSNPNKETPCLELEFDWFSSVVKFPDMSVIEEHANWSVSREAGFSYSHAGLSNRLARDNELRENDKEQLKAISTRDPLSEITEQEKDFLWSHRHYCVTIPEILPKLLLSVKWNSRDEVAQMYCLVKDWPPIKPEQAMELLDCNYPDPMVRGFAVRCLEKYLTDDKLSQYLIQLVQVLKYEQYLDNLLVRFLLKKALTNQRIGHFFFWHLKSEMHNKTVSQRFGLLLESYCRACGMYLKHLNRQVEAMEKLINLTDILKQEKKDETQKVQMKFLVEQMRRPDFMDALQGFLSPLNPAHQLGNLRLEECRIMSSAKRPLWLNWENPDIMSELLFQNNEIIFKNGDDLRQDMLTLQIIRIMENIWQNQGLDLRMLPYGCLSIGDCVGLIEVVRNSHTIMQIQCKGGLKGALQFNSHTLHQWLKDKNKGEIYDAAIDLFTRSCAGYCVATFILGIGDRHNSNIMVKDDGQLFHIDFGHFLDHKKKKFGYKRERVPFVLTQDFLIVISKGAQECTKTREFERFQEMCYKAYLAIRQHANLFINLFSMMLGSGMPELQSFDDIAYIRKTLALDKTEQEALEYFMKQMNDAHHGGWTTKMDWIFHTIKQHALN

[4] = target: T1, Phosphatidylinositol 4,5-bisphosphate 3-kinase catalytic subunit alpha isoform; experiment: Inhibition of PI3Kalpha (unknown origin) using PIP2 as substrate preincubated for 15 mins followed by substrate addition and measured after 1 hr by HTRF assay
[5] = target: T2, Phosphatidylinositol 4,5-bisphosphate 3-kinase catalytic subunit delta isoform (Homo sapiens, UniProt O00329); experiment: Inhibition of PI3Kdelta (unknown origin) using PIP2 as substrate preincubated for 15 mins followed by substrate addition and measured after 1 hr by HTRF assay
T2 sequence (O00329 whole entry): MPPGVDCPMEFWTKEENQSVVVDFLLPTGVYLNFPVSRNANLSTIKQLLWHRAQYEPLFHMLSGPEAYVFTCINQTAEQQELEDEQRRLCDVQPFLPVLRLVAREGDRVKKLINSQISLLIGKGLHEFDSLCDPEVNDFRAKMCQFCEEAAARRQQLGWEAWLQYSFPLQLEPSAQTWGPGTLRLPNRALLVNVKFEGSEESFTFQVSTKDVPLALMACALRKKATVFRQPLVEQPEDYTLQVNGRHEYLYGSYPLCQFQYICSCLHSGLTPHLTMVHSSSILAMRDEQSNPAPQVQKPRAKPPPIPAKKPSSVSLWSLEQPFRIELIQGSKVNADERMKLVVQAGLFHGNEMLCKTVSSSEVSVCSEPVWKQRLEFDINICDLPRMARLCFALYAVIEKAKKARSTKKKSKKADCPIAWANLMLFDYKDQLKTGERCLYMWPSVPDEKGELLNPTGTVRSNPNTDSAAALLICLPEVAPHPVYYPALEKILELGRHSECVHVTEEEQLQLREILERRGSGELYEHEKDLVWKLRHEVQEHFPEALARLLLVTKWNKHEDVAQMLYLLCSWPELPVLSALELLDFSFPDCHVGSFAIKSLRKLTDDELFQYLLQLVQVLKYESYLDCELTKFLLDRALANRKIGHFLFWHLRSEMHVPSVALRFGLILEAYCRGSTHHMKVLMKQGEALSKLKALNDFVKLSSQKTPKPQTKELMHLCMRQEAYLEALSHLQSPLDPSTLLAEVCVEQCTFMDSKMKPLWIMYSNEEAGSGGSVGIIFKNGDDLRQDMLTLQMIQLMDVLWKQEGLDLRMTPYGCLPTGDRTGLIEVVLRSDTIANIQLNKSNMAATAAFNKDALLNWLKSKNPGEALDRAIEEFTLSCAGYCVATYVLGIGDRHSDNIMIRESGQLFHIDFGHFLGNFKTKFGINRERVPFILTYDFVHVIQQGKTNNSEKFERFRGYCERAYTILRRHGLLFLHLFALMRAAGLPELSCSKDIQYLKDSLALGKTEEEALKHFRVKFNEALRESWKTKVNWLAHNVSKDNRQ

[6] = target: Epidermal growth factor receptor (Homo sapiens, UniProt P00533); experiment: Inhibition of EGFR (unknown origin)
[7] = target: T3, Phosphatidylinositol 4,5-bisphosphate 3-kinase catalytic subunit gamma isoform (Homo sapiens, UniProt P48736); experiment: Inhibition of PI3Kgamma (unknown origin) using […] as substrate preincubated for 15 mins followed by substrate addition and measured after 1 hr by HTRF assay
T3 sequence (P48736 whole entry, canonical isoform): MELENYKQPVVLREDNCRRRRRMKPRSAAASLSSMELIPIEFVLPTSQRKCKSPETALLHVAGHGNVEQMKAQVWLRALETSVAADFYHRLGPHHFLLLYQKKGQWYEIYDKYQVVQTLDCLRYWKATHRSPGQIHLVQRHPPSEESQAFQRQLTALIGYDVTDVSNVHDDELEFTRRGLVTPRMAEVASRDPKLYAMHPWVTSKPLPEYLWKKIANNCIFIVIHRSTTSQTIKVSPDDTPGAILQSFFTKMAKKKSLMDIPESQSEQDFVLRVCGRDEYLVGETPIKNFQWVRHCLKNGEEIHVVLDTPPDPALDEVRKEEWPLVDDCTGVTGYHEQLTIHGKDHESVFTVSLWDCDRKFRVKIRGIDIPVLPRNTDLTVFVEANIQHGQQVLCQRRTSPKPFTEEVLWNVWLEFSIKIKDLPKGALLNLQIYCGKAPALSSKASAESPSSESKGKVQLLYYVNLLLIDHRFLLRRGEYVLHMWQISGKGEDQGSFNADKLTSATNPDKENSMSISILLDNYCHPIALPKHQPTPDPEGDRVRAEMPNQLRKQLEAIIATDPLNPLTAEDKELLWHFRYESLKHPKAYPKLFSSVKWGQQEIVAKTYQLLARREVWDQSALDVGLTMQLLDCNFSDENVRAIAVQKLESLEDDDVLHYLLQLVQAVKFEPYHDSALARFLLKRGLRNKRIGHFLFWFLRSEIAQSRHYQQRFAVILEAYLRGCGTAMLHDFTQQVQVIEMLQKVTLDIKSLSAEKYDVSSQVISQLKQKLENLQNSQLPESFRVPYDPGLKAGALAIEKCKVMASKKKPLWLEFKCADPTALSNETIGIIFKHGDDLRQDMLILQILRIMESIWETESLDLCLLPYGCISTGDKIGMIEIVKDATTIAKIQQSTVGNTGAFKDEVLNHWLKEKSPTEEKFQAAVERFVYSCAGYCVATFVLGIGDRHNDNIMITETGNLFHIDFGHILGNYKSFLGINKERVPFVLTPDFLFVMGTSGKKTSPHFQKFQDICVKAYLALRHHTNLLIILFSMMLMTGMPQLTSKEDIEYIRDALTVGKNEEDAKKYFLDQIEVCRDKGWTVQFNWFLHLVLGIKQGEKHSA

[8] = target: T4, Phosphatidylinositol 4,5-bisphosphate 3-kinase catalytic subunit beta isoform (Homo sapiens, UniProt P42338); experiment: Inhibition of PI3Kbeta (unknown origin) using […] as substrate preincubated for 15 mins followed by substrate addition and measured after 1 hr by HTRF assay
T4 sequence (P42338 whole entry, canonical isoform): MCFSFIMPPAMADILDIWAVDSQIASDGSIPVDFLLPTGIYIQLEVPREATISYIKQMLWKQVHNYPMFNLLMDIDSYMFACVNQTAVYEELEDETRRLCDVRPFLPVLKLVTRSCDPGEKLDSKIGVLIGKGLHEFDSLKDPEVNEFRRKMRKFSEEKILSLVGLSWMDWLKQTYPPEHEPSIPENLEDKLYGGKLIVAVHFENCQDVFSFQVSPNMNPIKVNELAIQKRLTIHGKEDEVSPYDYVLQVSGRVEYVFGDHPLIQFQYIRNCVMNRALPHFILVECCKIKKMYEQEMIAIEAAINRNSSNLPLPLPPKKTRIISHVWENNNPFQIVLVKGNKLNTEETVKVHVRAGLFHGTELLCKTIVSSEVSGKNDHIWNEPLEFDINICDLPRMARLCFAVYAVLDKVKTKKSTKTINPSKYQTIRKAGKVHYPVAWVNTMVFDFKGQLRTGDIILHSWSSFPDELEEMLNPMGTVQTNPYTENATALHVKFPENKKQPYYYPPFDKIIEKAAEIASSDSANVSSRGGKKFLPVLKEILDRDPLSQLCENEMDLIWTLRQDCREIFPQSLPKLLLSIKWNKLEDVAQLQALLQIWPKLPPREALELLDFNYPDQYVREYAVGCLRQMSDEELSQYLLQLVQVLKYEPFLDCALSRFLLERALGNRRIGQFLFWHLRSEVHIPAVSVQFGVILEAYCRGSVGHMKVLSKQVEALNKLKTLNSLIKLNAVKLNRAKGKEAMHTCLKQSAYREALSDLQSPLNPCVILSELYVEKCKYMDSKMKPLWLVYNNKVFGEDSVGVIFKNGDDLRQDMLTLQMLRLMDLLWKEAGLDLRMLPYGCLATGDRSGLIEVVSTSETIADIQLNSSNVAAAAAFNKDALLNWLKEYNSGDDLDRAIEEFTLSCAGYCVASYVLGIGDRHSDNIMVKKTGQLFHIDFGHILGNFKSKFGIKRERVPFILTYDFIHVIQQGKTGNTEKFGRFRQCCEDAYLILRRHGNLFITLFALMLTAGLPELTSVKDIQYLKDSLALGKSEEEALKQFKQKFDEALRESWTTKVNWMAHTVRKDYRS

[9] = Antiproliferative activity against human A2780cis cells assessed as inhibition of cell growth incubated for 72 hrs by cell-titer glo assay; type: functional, cell-based
[10] = Cytotoxicity against human SK-ES cells assessed as reduction in cell viability incubated for 48 hrs by CellTiter-Blue reagent based […] assay; type: functional
[11] = target: Serine/threonine-protein kinase mTOR (Homo sapiens, UniProt P42345)
[12] = target: T5, Histone deacetylase 8 (Homo sapiens, UniProt Q9BY41); experiment: Inhibition of HDAC8 (unknown origin) by fluorescence based assay
T5 sequence (Q9BY41 whole entry): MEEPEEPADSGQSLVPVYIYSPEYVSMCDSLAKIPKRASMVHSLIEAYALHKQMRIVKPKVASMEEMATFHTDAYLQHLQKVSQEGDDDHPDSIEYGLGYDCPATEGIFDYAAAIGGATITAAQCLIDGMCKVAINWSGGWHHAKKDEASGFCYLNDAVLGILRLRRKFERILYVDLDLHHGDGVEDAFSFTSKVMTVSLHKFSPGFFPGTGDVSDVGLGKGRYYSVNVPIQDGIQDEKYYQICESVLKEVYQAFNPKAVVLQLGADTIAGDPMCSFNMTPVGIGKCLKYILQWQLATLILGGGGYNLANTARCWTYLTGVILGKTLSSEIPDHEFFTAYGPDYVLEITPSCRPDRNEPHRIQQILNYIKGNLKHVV

[13] = target: T1, Phosphatidylinositol 4,5-bisphosphate 3-kinase catalytic subunit alpha isoform
[14] = target: T3, Phosphatidylinositol 4,5-bisphosphate 3-kinase catalytic subunit gamma isoform
[15] = target: T5, Histone deacetylase 8; experiment: Inhibition of HDAC8 (unknown origin) using Fluoro-Substrate Peptide as substrate by fluorescence assay
[16] = target: T4, Phosphatidylinositol 4,5-bisphosphate 3-kinase catalytic subunit beta isoform; experiment: Inhibition of human recombinant PI3Kbeta
[17] = target: T1, Phosphatidylinositol 4,5-bisphosphate 3-kinase catalytic subunit alpha isoform; experiment: Inhibition of PI3Kalpha (unknown origin) at 1 uM by kinase-glo luminescent assay relative to control
[18] = target: Mitogen-activated protein kinase 1 (Homo sapiens) (UniProt P28482); experiment: Inhibition of ERK2 (unknown origin) at 1 uM relative to control by ADP-Glo assay
Mitogen-activated protein kinase 1 (Homo sapiens), sequence (P28482 whole entry): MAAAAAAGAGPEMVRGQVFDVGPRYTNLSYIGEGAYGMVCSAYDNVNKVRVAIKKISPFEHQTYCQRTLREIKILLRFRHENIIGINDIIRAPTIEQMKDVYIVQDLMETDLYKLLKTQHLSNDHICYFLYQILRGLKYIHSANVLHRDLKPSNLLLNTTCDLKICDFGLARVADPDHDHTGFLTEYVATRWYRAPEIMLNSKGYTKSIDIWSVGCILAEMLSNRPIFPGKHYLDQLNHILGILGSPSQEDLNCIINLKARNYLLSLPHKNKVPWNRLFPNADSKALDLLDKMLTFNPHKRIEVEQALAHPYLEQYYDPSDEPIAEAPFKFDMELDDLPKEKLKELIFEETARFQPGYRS

[19] = test system: B16; experiment: Antiproliferative activity against mouse B16 cells assessed as reduction in cell viability measured for 48 hrs by MTT assay; type: functional, cell-based; conditions: B16, 48 h

IC50 [13]: 2.98 nM
IC50 [14]: 25 nM
IC50 [15]: 153 nM
SMILES: COc1c(OCCCCCC(=O)NO)ccc2c1N=C(NC(=O)c1ccccc1)N1CCN=C21

IC50 [16]: 5 nM
SMILES: O=C(Nc1ncc2ncc(-c3cn[nH]c3)cc2n1)NC1CCCC1

inhibition [17]: 4%
inhibition [18]: 79.5%
SMILES: Cn1cc(-c2n[nH]c3nc(NC(=O)NC4CCCC4)ncc23)cn1

More lines, now with the values behind:

SMILES: CC(C)c1cc(C(=O)N2CCc3c(sc4nc(-c5cccnc5)nc(N5CCOCC5)c34)C2)c(O)cc1O
IC50 [1]: 2.29 µg/mL (≈ 4.31 µM)

SMILES: CC(C)[C@H]1NC(=O)C[C@H]2/C=C/CCSSC[C@@H](NC1=O)C(=O)N[C@H](Cc1ccccc1)C(=O)NCC(=O)O2
IC50 [2]: 2.5 nM
IC50 [3]: 27300 nM

SMILES: CCOC(=O)c1nn(-c2ccccc2)c(=O)c2c(N)c(C#N)c(-c3cccs3)cc12
IC50 [4]: 10500 nM
IC50 [5]: 7470 nM
IC50 [6]: 114000 nM
IC50 [7]: 30000 nM
IC50 [8]: 32700 nM

SMILES: CC(C)OC(=O)N1CCC(Nc2ncnc3ccc(-c4cnc(Cl)c(NS(=O)(=O)c5ccc(F)cc5F)c4)nc23)CC1
IC50 [9]: 213 nM
IC50 [10]: 99.5 nM

SMILES: CCn1c(=O)c(-c2cc[nH]n2)cc2c(C)nc(N)nc21 [VOXTALISIB]
IC50 [11]: 150 nM

SMILES: O=C(NO)c1ccc(/C=N/NC(=O)c2cc(N3CCOCC3)nc(-c3cccc4[nH]ncc34)n2)cc1
IC50 [12]: 66.5 nM

SMILES: CC(C)c1cc(C(=O)N2CCc3c(sc4ncnc(N5CCOCC5)c34)C2)c(O)cc1O
IC50 [19]: 0.47 µg/mL (≈ 1.03 µM)
